Legend:
[1] = biological target: T1, Glucocorticoid Receptor (GR) (Homo sapiens, UniProt P04150); experiment: GR Fluorescence Polarization Assay (PolarScreen Glucocorticoid Receptor Competitor Assay, Red); conditions: IC50 class ranges, read-out: GR binding
T1 construct: purchased Invitrogen P2893
T1 sequence (P04150 1-777): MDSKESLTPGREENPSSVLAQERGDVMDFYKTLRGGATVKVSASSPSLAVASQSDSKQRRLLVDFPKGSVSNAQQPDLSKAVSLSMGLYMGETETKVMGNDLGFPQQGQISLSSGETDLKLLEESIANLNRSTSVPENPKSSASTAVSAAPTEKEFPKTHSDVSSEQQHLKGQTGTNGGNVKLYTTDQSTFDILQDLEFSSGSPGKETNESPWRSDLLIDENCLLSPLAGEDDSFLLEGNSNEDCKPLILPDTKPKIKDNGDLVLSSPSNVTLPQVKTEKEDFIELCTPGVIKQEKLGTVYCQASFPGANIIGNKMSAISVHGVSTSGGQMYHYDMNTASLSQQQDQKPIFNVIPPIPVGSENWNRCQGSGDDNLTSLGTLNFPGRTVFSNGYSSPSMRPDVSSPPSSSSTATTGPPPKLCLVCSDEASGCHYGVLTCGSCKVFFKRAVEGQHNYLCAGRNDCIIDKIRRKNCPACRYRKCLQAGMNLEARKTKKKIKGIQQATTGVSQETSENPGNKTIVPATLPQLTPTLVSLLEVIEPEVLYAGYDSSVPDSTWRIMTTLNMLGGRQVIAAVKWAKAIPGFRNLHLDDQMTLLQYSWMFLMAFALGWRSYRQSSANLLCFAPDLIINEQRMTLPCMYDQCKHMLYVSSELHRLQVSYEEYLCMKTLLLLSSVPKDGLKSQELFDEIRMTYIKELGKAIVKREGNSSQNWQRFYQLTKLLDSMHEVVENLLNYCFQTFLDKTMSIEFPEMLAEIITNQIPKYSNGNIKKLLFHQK
In short: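 Competitive fluorescence-polarization assay using a red fluorescent glucocorticoid tracer with human GR in kit buffer. Compounds serially diluted 1:4 in DMSO, incubated with tracer and GR overnight at 4° C, then polarization read.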

[2] = tested on: IL-6 in A549 cells stimulated with IL-1β; experiment: A549 Cell Assay to Measure Inflammation Markers (inhibition of IL-1β-induced IL-6); type: cell-based; conditions: intrinsic activity, Emax class ranges; for Emax: Homo sapiens, A549, A549 Cell Assay to Measure Inflammation Markers
In short: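 Compound pre-incubated with A549 cells 1 h at 37 °C, then stimulated with IL-1β (1 ng/mL final, 0.1% DMSO). Supernatant IL-6 quantified by MSD immunoassay after a further incubation. IC50 and Emax derived.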

Row | Structure (SMILES) | IC50 [1] [nM] | Emax [2] [%] | A549 Emax ([2]; A549 Cell Assay to Measure Inflammation Markers)
1 | CCn1nc(-c2ccccn2)c2c1N[C@@H](C)CS[C@H]2c1ccc(CCCO)cc1C (single isomer, unassigned) [M.36, 3-(4-(1-ethyl-7-methyl-3-(pyridin-2-yl)-4,6,7,8-tetrahydro-1H-pyrazolo[3,4-e][1,4]thiazepin-4-yl)-3-methylphenyl)propan-1-ol] | < 100 | > 60 | 
2 | Cn1nc(-c2ccccn2)c2c1NCC[S+]([O-])C2c1ccc(Cl)cc1Cl (centres unmarked) [L.2] | 1000 to 10000 | < 50 | 
3 | Cc1nn(C)c2c1C(c1ccc(Cl)cc1Cl)S(=O)(=O)C(C)(C)CN2 (centres unmarked) [L.4] | 1000 to 10000 | < 50 | 
4 | Cc1ccc(C)c(C2SC(C)(C)CNc3c2c(C2CC2)nn3C)c1 (centres unmarked) [D.49] | < 100 | < 50 | 
5 | Cc1nn(CC(O)C(F)(F)F)c2c1C(c1ccc(Cl)cc1Cl)SC(C)(C)CN2 (single isomer, unassigned) [M.5, 3-(4-(2,4-dichlorophenyl)-3,6,6-trimethyl-4,6,7,8-tetrahydro-1H-pyrazolo[3,4-e][1,4]thiazepin-1-yl)-1,1,1-trifluoropropan-2-ol] | 1000 to 10000 | < 50 | 
6 | Cc1n[nH]c2c1C(c1ccc(Cl)cc1Cl)SC(C)(C)CN2 (centres unmarked) [D.63] | 1000 to 10000 | < 50 | 
7 | Cc1cc(Br)sc1C1SCCNc2c1c(-c1ccccn1)nn2C (centres unmarked) [D.26, 4-(5-bromo-3-methyl-2-thienyl)-1-methyl-3-(2-pyridyl)-4,6,7,8-tetrahydropyrazolo[3,4-e][1,4]thiazepine] | < 100 | < 50 | 
8 | CCn1nc(-c2ccccn2)c2c1NC(=O)CCC2c1ccc(C(=O)Nc2cccnc2C)cc1C (centres unmarked) [O.2] | 100 to 1000 | > 70 | 
9 | CCn1nc(-c2ccccn2)c2c1N[C@@H](C)CS[C@H]2c1ccc(C#CCO)cc1C (single isomer, unassigned) [M.28, 3-(4-(1-ethyl-7-methyl-3-(pyridin-2-yl)-4,6,7,8-tetrahydro-1H-pyrazolo[3,4-e][1,4]thiazepin-4-yl)-3-methylphenyl)prop-2-yn-1-ol] | < 100 | > 60 | 
10 | CCn1nc(-c2ccccn2)c2c1NCCSC2c1ccc(C(=O)Nc2n[nH]c(C)c2C#N)cc1C (centres unmarked) [S.9] | < 100 | < 50 | 
11 | Cc1cc(C#N)ccc1C1SCCNc2c1c(-c1ccccn1)nn2C (centres unmarked) [G.8, 3-methyl-4-(1-methyl-3-(pyridin-2-yl)-4,6,7,8-tetrahydro-1H-pyrazolo[3,4-e][1,4]thiazepin-4-yl)benzonitrile] | < 100 | > 60 | 
12 | Cc1cc(Cl)ccc1C1SCCNc2c1c(-c1ccccn1)nn2C (centres unmarked) [D.1, 4-(4-chloro-2-methyl-phenyl)-1-methyl-3-(2-pyridyl)-4,6,7,8-tetrahydro-pyrazolo[3,4-e][1,4]thiazepine] | < 100 | > 60 | 
13 | Cc1cc(C#N)ccc1[C@@H]1S[C@@H](C)CNc2c1c(C1CC1)nn2C (racemic) [G.4] | < 100 | < 50 | 
14 | Cn1nc(-c2ccccn2)c2c1NCCSC2c1ccc(C(N)=O)cc1Cl (centres unmarked) [I.1, 3-chloro-4-[1-methyl-3-(2-pyridyl)-4,6,7,8-tetrahydropyrazolo[3,4-e][1,4]thiazepin-4-yl]benzamide] | 100 to 1000 | < 50 | 
15 | Cc1cc(Cl)ccc1C1SCCNc2c1c(O)nn2C (centres unmarked) [D.73, 4-(4-chloro-2-methyl-phenyl)-1-methyl-4,6,7,8-tetrahydropyrazolo[3,4-e][1,4]thiazepin-3-ol] | > 10000 | < 50 | 
16 | Cc1nn(C)c2c1C(c1ccc(Cl)cc1Cl)SC1(CCC1)CN2 (centres unmarked) [D.66] | < 100 | < 50 | 
17 | Cn1nc(C2CC2)c2c1NCC(C)(C)SC2c1ccc(Cl)cc1F (single isomer, unassigned) [M.4, 4-(4-chloro-2-fluorophenyl)-3-cyclopropyl-1,6,6-trimethyl-4,6,7,8-tetrahydro-1H-pyrazolo[3,4-e][1,4]thiazepine] | < 100 |  | D (a compound with Emax<50%)
18 | CCn1nc(-c2ccccn2)c2c1NCCSC2c1ccc(C(=O)Nc2nnc(C)s2)cc1C (centres unmarked) [S.4] | < 100 | < 50 | 
19 | Cc1cc(Cl)ccc1C1SCC(C)Nc2c1c(-c1ccccn1)nn2C (racemic) [4-(4-chloro-2-methyl-phenyl)-1,7-dimethyl-3-(2-pyridyl)-4,6,7,8-tetrahydropyrazolo[3,4-e][1,4]thiazepine] | < 100 | > 70 | 
20 | Cc1cc(C#N)ccc1C1SCCNc2onc(-c3ccccn3)c21 (centres unmarked) [G.9] | < 100 | < 50 | 

Row | Structure (SMILES) | IC50 [1] [nM] | Emax [2] [%] | A549 Emax ([2]; A549 Cell Assay to Measure Inflammation Markers)
21 | COc1ccnc(-c2nn(C)c3c2C(c2ccc(Cl)cc2C)SCCN3)c1 (centres unmarked) [D.22] | < 100 | < 50 | 
22 | Cc1cc(C(=O)Nc2cccnc2C)ccc1[C@@H]1SC[C@H](C)Nc2c1c(-c1ccncn1)nn2C (single isomer, unassigned) [M.58, 4-(1,7-dimethyl-3-(pyrimidin-4-yl)-4,6,7,8-tetrahydro-1H-pyrazolo[3,4-e][1,4]thiazepin-4-yl)-3-methyl-N-(2-methylpyridin-3-yl)benzamide] | < 100 | > 70 | 
23 | Cc1ccc(Br)cc1C1SC(C)(C)CNc2c1c(C1CC1)nn2C (centres unmarked) [D.55, 4-(5-bromo-2-methyl-phenyl)-3-cyclopropyl-1,6,6-trimethyl-7,8-dihydro-4H-pyrazolo[3,4-e][1,4]thiazepine] | < 100 | < 50 | 
24 | Cn1nc(C2CC2)c2c1NCC(C)(C)SC2c1ccc(Cl)cc1F (centres unmarked) [D.53] | < 100 | < 50 | 
25 | Cc1cc(Cl)ccc1[C@@H]1SC(C)(C)CNc2c1c(C)nn2C (single isomer, unassigned) [M.7] | 1000 to 10000 | < 50 | 
26 | Cc1cc(Cl)cnc1C1SCCNc2c1c(-c1ccccn1)nn2C (centres unmarked) [D.21] | 100 to 1000 | < 50 | 
27 | CCn1nc(-c2ccccn2)c2c1NCCSC2c1ccc(Br)cc1C (centres unmarked) [D.30, 4-(4-bromo-2-methyl-phenyl)-1-ethyl-3-(2-pyridyl)-4,6,7,8-tetrahydropyrazolo[3,4-e][1,4]thiazepine] | < 100 | > 70 | 
28 | CCn1nc(-c2ccccn2)c2c1NCCCC2c1ccc(C(=O)Nc2cccnc2C)cc1C (centres unmarked) [F.7] | < 100 | > 70 | 
29 | CCn1nc(-c2ccccn2)c2c1N[C@@H](C)CS[C@H]2c1ccc(C#CC(C)(C)O)cc1C (single isomer, unassigned) [M.32, 4-(4-(1-ethyl-7-methyl-3-(pyridin-2-yl)-4,6,7,8-tetrahydro-1H-pyrazolo[3,4-e][1,4]thiazepin-4-yl)-3-methylphenyl)-2-methylbut-3-yn-2-ol] | < 100 | > 70 | 
30 | Cn1nc(-c2ccccn2)c2c1NCCSC2c1ccc(Cl)cc1C1CC1 (centres unmarked) [D.38] | < 100 | > 50 | 
31 | Cc1cc(Cl)ccc1[C@H]1SC[C@@H](C)Nc2c1c(C)nn2C (racemic) [K.7] | < 100 | < 50 | 
32 | COC(=O)c1ccc(C2SCCNc3c2c(-c2ccccn2)nn3C)c(Cl)c1 (centres unmarked) [E.1, methyl 3-chloro-4-[1-methyl-3-(2-pyridyl)-4,6,7,8-tetrahydropyrazolo[3,4-e][1,4]thiazepin-4-yl]benzoate] | < 100 | < 50 | 
33 | Cc1cc(Cl)ccc1C1SCC(C(C)C)Nc2c1c(-c1ccccn1)nn2C (centres unmarked) [K.3] | < 100 | < 50 | 
34 | CC1CSC(c2ccc(Br)cc2C(F)(F)F)c2c(-c3ccccn3)nn(C)c2N1 (centres unmarked) [K.11] | < 100 | < 50 | 
35 | COC(=O)c1cc(C2SCCNc3c2c(-c2ccccn2)nn3C)c(C)s1 (centres unmarked) [E.5] | 1000 to 10000 | < 50 | 
36 | COc1ccc(C)c(C2SC(C)(C)CNc3c2c(C2CC2)nn3C)c1 (centres unmarked) [D.106] | < 100 | < 50 | 
37 | Cn1nc(-c2ccccn2)c2c1NCCSC2c1ccc(Cl)cc1Cl (centres unmarked) [D.8, 4-(2,4-dichlorophenyl)-1-methyl-3-(2-pyridyl)-4,6,7,8-tetrahydropyrazolo[3,4-e][1,4]thiazepine] | < 100 | < 50 | 
38 | Cn1nc(-c2ccccn2)c2c1NCCSC2c1ccc(C(=O)O)cc1Cl (centres unmarked) | 100 to 1000 | < 50 | 
39 | Cn1nc(-c2ccccn2)c2c1NCCS(=O)(=O)C2c1ccc(Cl)cc1Cl (centres unmarked) [L.3] | 100 to 1000 | < 50 | 
40 | CCn1nc(-c2ccccn2)c2c1NCCSC2c1ccc(C#N)cc1C (centres unmarked) [G.10, 3-methyl-4-(1-ethyl-3-(pyridin-2-yl)-4,6,7,8-tetrahydro-1H-pyrazolo[3,4-e][1,4]thiazepin-4-yl)benzonitrile] | < 100 | > 70 | 

From patent publication US9150592B2, “Heterocyclic nuclear hormone receptor modulators” (AbbVie Inc., priority 2012, dated 2015)
